Experimental data taken from ChEMBL document CHEMBL3044871, “Importance of some classes of molecular descriptors on classification of antitumor acridinones using factor analysis” (2012).

tested on: P388; assay: Antitumor activity against Mus musculus (mouse) P388 cells xenografted in Mus musculus (mouse) assessed as increase in life span at 25 mg/kg relative to control; format: functional

Compared with `CN(C)CCN(C)c1ccc2nnn3c4ccc(O)cc4c(=O)c1c23`, `CN(C)CCNc1ccc2nnn3c4ccc(O)cc4c(=O)c1c23` is higher in Activity: 10% for the first, 102% for the second.

With `CN(C)CCCNc1ccc2nnn3c4ccc(O)cc4c(=O)c1c23` the Activity was 165%.

tested on: P388; assay: Antitumor activity against Mus musculus (mouse) P388 cells xenografted in Mus musculus (mouse) assessed as increase in life span at 100 mg/kg relative to control; format: functional

First: CN(C)CCNc1ccc2nnn3c4ccccc4c(=O)c1c23
Second: Cc1ccc2c(c1)c(=O)c1c(NCCCN(C)C)ccc3nnn2c31
The Activity of the first is higher: 77% for the first, 18% for the second.

tested on: P388; assay: Antitumor activity against Mus musculus (mouse) P388 cells xenografted in Mus musculus (mouse) assessed as increase in life span relative to control; format: functional; design: concentration or dose not given beside the values

Compared with `CN(C)CCCNc1ccc2ncn3c4ccccc4c(=O)c1c23`, `CN(C)CCNc1ccc2ncn3c4ccccc4c(=O)c1c23` is higher in Activity: 25% for the first, 90% for the second.

Going from `CN(C)CCCCCNc1ccc2ncn3c4ccc(O)cc4c(=O)c1c23` to `CN(C)CCCNc1ccc2ncn3c4ccc(O)cc4c(=O)c1c23`, the Activity rises from 85% to 120%.

Going from `CCN(CC)CCNc1ccc2ncn3c4cc(O)ccc4c(=O)c1c23` to `CCN(CC)CCNc1ccc2ncn3c4ccc(O)cc4c(=O)c1c23` [C-1311], the Activity rises from 27% to 93%.

Going from `CCN(CC)CCNc1ccc2ncn3c4ccc(C(C)(C)C)cc4c(=O)c1c23` to `CCN(CC)CCNc1ccc2ncn3c4ccc(OC)cc4c(=O)c1c23`, the Activity rises from 0% to 96%.

Going from `CN(C)CCNc1ccc2ncn3c4ccc(O)cc4c(=O)c1c23` to `CN(C)CCCCCNc1ccc2ncn3c4ccccc4c(=O)c1c23`, the Activity falls from 110% to 10%.

Going from `CCN(CC)CCNc1ccc2ncn3c4ccccc4c(=O)c1c23` to `CCN(CC)CCCCCNc1ccc2ncn3c4ccc(C)cc4c(=O)c1c23`, the Activity falls from 55% to 20%.

First: CCNCCNc1ccc2nnn3c4ccc(O)cc4c(=O)c1c23
Second: CN(C)CCNc1ccc2nnn3c4ccc(C(C)(C)C)cc4c(=O)c1c23
The Activity of the first is higher: 78% for the first, 0% for the second.

`CCN(CC)CCNc1ccc2nc(C)n3c4ccc(O)cc4c(=O)c1c23` was tested, and the Activity was 185%.
